Publication PMC4526387 (Clinical cancer research : an official journal of the …, 2015)
Like-named read-outs stand apart in the source and are kept apart here.

Columns and labels:
[1] = system: metastatic renal cell carcinoma (mRCC); format: in vivo, human; details: rise in MMP-9 and SCF and fall in SHBG and SAP
advanced solid tumors = details: 21 patients, cited from earlier work
[2] = system: metastatic renal cell carcinoma (mRCC); details: subset with one prior VEGF-TKI; ref AXIS trial; cited from earlier work
[3] = Phase I PK of everolimus in whole blood; format: in vivo, human; details: 6-hour collection interval, everolimus 10 mg daily
[4] = system: metastatic renal cell carcinoma (mRCC); assay: Randomized phase II: 6MPFS, PFS, response; format: in vivo, human
[5] = Randomized phase II: adverse events; format: in vivo, human
[6] = cited from earlier work
[7] = system: metastatic renal cell carcinoma (mRCC); details: subset with one prior VEGF-TKI; ref RECORD-1 trial; cited from earlier work

COc1cc(C(=O)c2c(C)oc3c(OP(=O)([O-])[O-])c(OC)ccc23)cc(OC)c1OC.[Na+].[Na+] [BNC105P]
patients progression free at 6 months, selected population [1]: 60%
objective responses (advanced solid tumors): no objective responses
patients with stable disease (SD) as best response (advanced solid tumors): 4 patients
intravenous dose identified for further studies (advanced solid tumors; days 1 and 8 of a 21-day cycle): 16 mg/m^2

CNC(=O)c1ccccc1Sc1ccc2c(/C=C/c3ccccn3)n[nH]c2c1 [axitinib]
median PFS [2]: 4.8 months

CO[C@H]1C[C@@H]2CC[C@@H](C)[C@@](O)(O2)C(=O)C(=O)N2CCCC[C@H]2C(=O)O[C@H]([C@H](C)C[C@@H]2CC[C@@H](OCCO)[C@H](OC)C2)CC(=O)[C@H](C)/C=C(\C)[C@@H](O)[C@@H](OC)C(=O)[C@H](C)C[C@H](C)/C=C/C=C/C=C/1C [everolimus]
overall mean concentration [3]: 17.8 ng/mL
6-month progression-free survival (6MPFS) ([4]; phase II): 30.30%
partial responses (number) ([4]; phase II): 2
median PFS amongst patients with liver metastasis ([4]; phase II exploratory analysis): 2.8 months
Abdominal pain % ([5]; % of arm): 10.4%
Acneiform rash % ([5]; % of arm): 10.4%
Anorexia % ([5]; % of arm): 23.9%
Back pain % ([5]; % of arm): 26.9%
Constipation % ([5]; % of arm): 22.4%
Cough % ([5]; % of arm): 20.9%
Diarrhea % ([5]; % of arm): 23.9%
Dyspnea % ([5]; % of arm): 31.3%
Epistaxis/Respiratory tract hemorrhage % ([5]; % of arm): 11.9%
Extremity pain % ([5]; % of arm): 13.4%
Fatigue % ([5]; % of arm): 44.8%
Fever % ([5]; % of arm): 17.9%
Headache % ([5]; % of arm): 16.4%
Insomnia % ([5]; % of arm): 16.4%
Lower extremity % ([5]; % of arm): 19.4%
Nausea % ([5]; % of arm): 23.9%
Nausea/Vomiting % ([5]; % of arm): 16.4%
Proteinuria % ([5]; % of arm): 14.9%
Pruritus % ([5]; % of arm): 7.5%
Rash % ([5]; % of arm): 22.4%
Skin changes % ([5]; % of arm): 20.9%
Stomatitis % ([5]; % of arm): 28.4%
Taste alteration % ([5]; % of arm): 14.9%
Elevated ALT % ([5]; laboratory, % of arm): 10.4%
Elevated AST % ([5]; laboratory, % of arm): 11.9%
Elevated alkaline phosphatise % ([5]; laboratory, % of arm): 14.9%
Elevated creatinine % ([5]; laboratory, % of arm): 11.9%
Hypercholesterolemia % ([5]; laboratory, % of arm): 28.4%
Hyperglycemia % ([5]; laboratory, % of arm): 25.4%
Hypertriglyceridemia % ([5]; laboratory, % of arm): 31.3%
Hyponatremia % ([5]; laboratory, % of arm): 11.9%
Low hemoglobin % ([5]; laboratory, % of arm): 37.3%
Thrombocytopenia % ([5]; laboratory, % of arm): 14.9%
Elevated ALT Grade 1/2 ([5]; laboratory, number of patients): 7
Elevated ALT Grade 3/4 ([5]; laboratory, number of patients): 0
Elevated ALT Grade 5 ([5]; laboratory, number of patients): 0
Elevated ALT Total ([5]; laboratory, number of patients): 7
Elevated AST Grade 1/2 ([5]; laboratory, number of patients): 8
Elevated AST Grade 3/4 ([5]; laboratory, number of patients): 0
Elevated AST Grade 5 ([5]; laboratory, number of patients): 0
Elevated AST Total ([5]; laboratory, number of patients): 8
Elevated alkaline phosphatise Grade 1/2 ([5]; laboratory, number of patients): 9
Elevated alkaline phosphatise Grade 3/4 ([5]; laboratory, number of patients): 1
Elevated alkaline phosphatise Grade 5 ([5]; laboratory, number of patients): 0
Elevated alkaline phosphatise Total ([5]; laboratory, number of patients): 10
Elevated creatinine Grade 1/2 ([5]; laboratory, number of patients): 5
Elevated creatinine Grade 3/4 ([5]; laboratory, number of patients): 3
Elevated creatinine Grade 5 ([5]; laboratory, number of patients): 0
Elevated creatinine Total ([5]; laboratory, number of patients): 8
Hypercholesterolemia Grade 1/2 ([5]; laboratory, number of patients): 19
Hypercholesterolemia Grade 3/4 ([5]; laboratory, number of patients): 0
Hypercholesterolemia Grade 5 ([5]; laboratory, number of patients): 0
Hypercholesterolemia Total ([5]; laboratory, number of patients): 19
Hyperglycemia Grade 1/2 ([5]; laboratory, number of patients): 12
Hyperglycemia Grade 3/4 ([5]; laboratory, number of patients): 5
Hyperglycemia Grade 5 ([5]; laboratory, number of patients): 0
Hyperglycemia Total ([5]; laboratory, number of patients): 17
Hypertriglyceridemia Grade 1/2 ([5]; laboratory, number of patients): 17
Hypertriglyceridemia Grade 3/4 ([5]; laboratory, number of patients): 4
Hypertriglyceridemia Grade 5 ([5]; laboratory, number of patients): 0
Hypertriglyceridemia Total ([5]; laboratory, number of patients): 21
Hyponatremia Grade 1/2 ([5]; laboratory, number of patients): 5
Hyponatremia Grade 3/4 ([5]; laboratory, number of patients): 3
Hyponatremia Grade 5 ([5]; laboratory, number of patients): 0
Hyponatremia Total ([5]; laboratory, number of patients): 8
Low hemoglobin Grade 1/2 ([5]; laboratory, number of patients): 19
Low hemoglobin Grade 3/4 ([5]; laboratory, number of patients): 6
Low hemoglobin Grade 5 ([5]; laboratory, number of patients): 0
Low hemoglobin Total ([5]; laboratory, number of patients): 25
Thrombocytopenia Grade 1/2 ([5]; laboratory, number of patients): 8
Thrombocytopenia Grade 3/4 ([5]; laboratory, number of patients): 2
Thrombocytopenia Grade 5 ([5]; laboratory, number of patients): 0
Thrombocytopenia Total ([5]; laboratory, number of patients): 10
Abdominal pain Grade 1/2 ([5]; number of patients): 5
Abdominal pain Grade 3/4 ([5]; number of patients): 2
Abdominal pain Grade 5 ([5]; number of patients): 0
Abdominal pain Total ([5]; number of patients): 7
Acneiform rash Grade 1/2 ([5]; number of patients): 7
Acneiform rash Grade 3/4 ([5]; number of patients): 0
Acneiform rash Grade 5 ([5]; number of patients): 0
Acneiform rash Total ([5]; number of patients): 7
Anorexia Grade 1/2 ([5]; number of patients): 15
Anorexia Grade 3/4 ([5]; number of patients): 1
Anorexia Grade 5 ([5]; number of patients): 0
Anorexia Total ([5]; number of patients): 16
Back pain Grade 1/2 ([5]; number of patients): 12
Back pain Grade 3/4 ([5]; number of patients): 6
Back pain Grade 5 ([5]; number of patients): 0
Back pain Total ([5]; number of patients): 18
Constipation Grade 1/2 ([5]; number of patients): 15
Constipation Grade 3/4 ([5]; number of patients): 0
Constipation Grade 5 ([5]; number of patients): 0
Constipation Total ([5]; number of patients): 15
Cough Grade 1/2 ([5]; number of patients): 13
Cough Grade 3/4 ([5]; number of patients): 1
Cough Grade 5 ([5]; number of patients): 0
Cough Total ([5]; number of patients): 14
Diarrhea Grade 1/2 ([5]; number of patients): 16
Diarrhea Grade 3/4 ([5]; number of patients): 0
Diarrhea Grade 5 ([5]; number of patients): 0
Diarrhea Total ([5]; number of patients): 16
Dyspnea Grade 1/2 ([5]; number of patients): 17
Dyspnea Grade 3/4 ([5]; number of patients): 4
Dyspnea Grade 5 ([5]; number of patients): 0
Dyspnea Total ([5]; number of patients): 21
Epistaxis/Respiratory tract hemorrhage Grade 1/2 ([5]; number of patients): 8
Epistaxis/Respiratory tract hemorrhage Grade 3/4 ([5]; number of patients): 0
Epistaxis/Respiratory tract hemorrhage Grade 5 ([5]; number of patients): 0
Epistaxis/Respiratory tract hemorrhage Total ([5]; number of patients): 8
Extremity pain Grade 1/2 ([5]; number of patients): 8
Extremity pain Grade 3/4 ([5]; number of patients): 1
Extremity pain Grade 5 ([5]; number of patients): 0
Extremity pain Total ([5]; number of patients): 9
Fatigue Grade 1/2 ([5]; number of patients): 24
Fatigue Grade 3/4 ([5]; number of patients): 6
Fatigue Grade 5 ([5]; number of patients): 0
Fatigue Total ([5]; number of patients): 30
Fever Grade 1/2 ([5]; number of patients): 10
Fever Grade 3/4 ([5]; number of patients): 2
Fever Grade 5 ([5]; number of patients): 0
Fever Total ([5]; number of patients): 12
Headache Grade 1/2 ([5]; number of patients): 10
Headache Grade 3/4 ([5]; number of patients): 1
Headache Grade 5 ([5]; number of patients): 0
Headache Total ([5]; number of patients): 11
Insomnia Grade 1/2 ([5]; number of patients): 11
Insomnia Grade 3/4 ([5]; number of patients): 0
Insomnia Grade 5 ([5]; number of patients): 0
Insomnia Total ([5]; number of patients): 11
Lower extremity Grade 1/2 ([5]; number of patients): 13
Lower extremity Grade 3/4 ([5]; number of patients): 0
Lower extremity Grade 5 ([5]; number of patients): 0
Lower extremity Total ([5]; number of patients): 13
Nausea Grade 1/2 ([5]; number of patients): 14
Nausea Grade 3/4 ([5]; number of patients): 2
Nausea Grade 5 ([5]; number of patients): 0
Nausea Total ([5]; number of patients): 16
Nausea/Vomiting Grade 1/2 ([5]; number of patients): 9
Nausea/Vomiting Grade 3/4 ([5]; number of patients): 2
Nausea/Vomiting Grade 5 ([5]; number of patients): 0
Nausea/Vomiting Total ([5]; number of patients): 11
Proteinuria Grade 1/2 ([5]; number of patients): 10
Proteinuria Grade 3/4 ([5]; number of patients): 0
Proteinuria Grade 5 ([5]; number of patients): 0
Proteinuria Total ([5]; number of patients): 10
Pruritus Grade 1/2 ([5]; number of patients): 4
Pruritus Grade 3/4 ([5]; number of patients): 1
Pruritus Grade 5 ([5]; number of patients): 0
Pruritus Total ([5]; number of patients): 5
Rash Grade 1/2 ([5]; number of patients): 15
Rash Grade 3/4 ([5]; number of patients): 0
Rash Grade 5 ([5]; number of patients): 0
Rash Total ([5]; number of patients): 15
Skin changes Grade 1/2 ([5]; number of patients): 11
Skin changes Grade 3/4 ([5]; number of patients): 3
Skin changes Grade 5 ([5]; number of patients): 0
Skin changes Total ([5]; number of patients): 14
Stomatitis Grade 1/2 ([5]; number of patients): 13
Stomatitis Grade 3/4 ([5]; number of patients): 6
Stomatitis Grade 5 ([5]; number of patients): 0
Stomatitis Total ([5]; number of patients): 19
Taste alteration Grade 1/2 ([5]; number of patients): 10
Taste alteration Grade 3/4 ([5]; number of patients): 0
Taste alteration Grade 5 ([5]; number of patients): 0
Taste alteration Total ([5]; number of patients): 10
half-life [6]: 26 to 38 h
mean trough concentration at steady state ([6]; patients who received 10 mg everolimus daily): 13.2 ng/mL
median PFS [7]: 5.4 months
